Experimental data from patent publication US9612237B2, “Ritalinic acid immunoassay” (Randox Laboratories Limited, priority 2013, dated 2017).
Values after ≈ are worked out from the molar mass of the structure shown. Where a name gives a salt, the structure may show the parent alone. Read-outs that look alike come from different tables or passages of the source.

What was measured:
[1] = test system: antibodies of the invention (antisera generated in response to immunogen of Example 5); assay: Competitive chemiluminescent biochip immunoassay, antiserum raised against immunogen of Example 5, HRP conjugate of Example 6; format: binding, sheep; conditions: for No measurable CR at given concentration: value is the concentration at which no cross-reactivity was exhibited; for Cross-reactivity / IC50: biochip; for Cross-reactivity: based on 100% specificity to RA; for IC50: calibrator concentration which produces 50% B/B0
[2] = test system: antisera generated in response to immunogen of Example 11; assay: Competitive chemiluminescent biochip immunoassay, antisera raised against immunogen of Example 11, conjugate of Example 12; format: binding, sheep; conditions: for IC50 / % cross reactivity: biochip; for % cross reactivity: relative to methylphenidate = 100
[3] = test system: antibodies of the invention (antisera generated in response to immunogen of Example 5); assay: ELISA, antiserum raised against immunogen of Example 5, HRP conjugate of Example 6; format: binding, sheep; conditions: for Ave OD: absorbance at 450 nm; for % CR: relative to ritalinic acid = 100
Description: Immunogen (2 mg) from Examples 5 or 11 was prepared in PBS, mixed at a ratio of 50% immunogen in PBS to 50% Freund's Complete Adjuvant (Sigma, Product Number F5881) and emulsified by repeatedly passing the mixture through a tip on the end of a 1 ml syringe, until semi-solid. The emulsified mixture (1 ml) was injected intramuscularly into the sheep (the primary immunisation dose). Further injections (boosts) were prepared (1 mg of immunogen is prepared in PBS and mixed at a ratio of 50% immunogen PBS/50% Freunds Incomplete adjuvant, Sigma, Product Number—F5506) and injected (1 ml) intramuscularly at monthly intervals. Serum was sampled monthly by collection of whole blood from the jugular vein for evaluation of the antibody titre. Prior to immobilisation on a solid substrate (for example, the biochip), the serum was purified using caprylic acid/ammonium sulphate precipitation, as described for example in Chapter 4 of “Making and Using Antibodies—A Practical Handbook” 2nd Edition, edited by G C Howard and M R Kaser, CRC Press.
The ELISA data provided below correspond to the same immunogen, antibody and tracer combination used to generate the Biochip standard curves, i.e. antibodies of the invention (antisera generated in response to immunogen of Example 5) and (2-(4-aminophenyl)-2-(piperidin-2-yl) acetic acid conjugated to HRP (Example 6). The assay methodology used to generate the ELISA data was standard ELISA methodology. Briefly, a microtitre plate was coated with Ig fraction of the antiserum produced at 5 μg/ml, prepared in Tris buffer, pH8.5. The coated plate was simultaneously incubated with calibrator/sample (from 0 ng/ml-80 ng/ml) and HRP conjugate at ⅛K dilution. After washing and substrate addition, absorbances were read at 450 nm. The absorbance in each well was inversely proportional to the concentration of ritalinic acid or methylphenidate hydrochloride in the calibrator/sample added to that well.

[4] = test system: Abcam polyclonal sheep antibody to MPH; conditions: Abcam antibody raised using MPH-BTG as the immunogen; cited from earlier work
[5] = value is the concentration at which no cross-reactivity was exhibited
[6] = Methylphenidate calibrator 78.13 ng/ml
[7] = Methylphenidate calibrator 156.25 ng/ml
[8] = Methylphenidate calibrator 312.50 ng/ml
[9] = Methylphenidate calibrator 625 ng/ml
[10] = Methylphenidate calibrator 1,250.00 ng/ml
[11] = Methylphenidate calibrator 2,500.00 ng/ml
[12] = Methylphenidate calibrator 5,000.00 ng/ml
[13] = Methylphenidate calibrator 10,000.00 ng/ml

## CC(=O)Nc1ccc(O)cc1 [Acetoaminophen]
[1]
  No measurable CR at given concentration: 1000 µg/mL
[2]; [5]
  Concentration exhibiting no cross-reactivity: 2500 µg/mL

## CCO[C@@H]1O[C@H](C(=O)O)[C@@H](O)[C@H](O)[C@H]1O [Ethyl glucuronide]
[1]
  No measurable CR at given concentration: 100 µg/mL
[2]; [5]
  Concentration exhibiting no cross-reactivity: 100 µg/mL

## CCOC(=O)C(c1ccccc1)C1CCCCN1 (stereo not shown) [Ethylphenidate]
[1]
  No measurable CR at given concentration: 100 µg/mL

## O=C(CCCN1CCC(O)(c2ccc(Cl)cc2)CC1)c1ccc(F)cc1 [Haloperidol]
[1]
  No measurable CR at given concentration: 10 µg/mL
[2]; [5]
  Concentration exhibiting no cross-reactivity: 10 µg/mL

## CC(C)Cc1ccc(C(C)C(=O)O)cc1 (stereo not shown) [Ibuprofen]
[1]
  No measurable CR at given concentration: 1000 µg/mL
[2]; value is the concentration at which no cross-reactivity was exhibited, listed as ibuprofen
  Concentration exhibiting no cross-reactivity: 1000 µg/mL

## COC(=O)C(c1ccccc1)C1CCCCN1 (stereo not shown) [Methylphenidate Hydrochloride]
[3]
  IC50: >>>80 ng/ml
  % CR: <<<10.5%
[3]; calibrator 1.25 ng/ml
  Ave OD: 1.677
  B/Bo: 101.9
[3]; calibrator 2.5 ng/ml
  Ave OD: 1.644
  B/Bo: 99.9
[3]; calibrator 5 ng/ml
  Ave OD: 1.635
  B/Bo: 99.4
[3]; calibrator 10 ng/ml
  Ave OD: 1.563
  B/Bo: 95.0
[3]; calibrator 20 ng/ml
  Ave OD: 1.476
  B/Bo: 89.7
[3]; calibrator 40 ng/ml
  Ave OD: 1.402
  B/Bo: 85.2
[3]; calibrator 80 ng/ml
  Ave OD: 1.311
  B/Bo: 79.7

## COC(=O)C(c1ccccc1)C1CCCCN1 (stereo not shown) [Methylphenidate, methylphenidate]
[1]; [6]
  B/B0 %: 87%
  RLU: 3878 RLU
[1]; [7]
  B/B0 %: 81%
  RLU: 3604 RLU
[1]; [8]
  B/B0 %: 75%
  RLU: 3319 RLU
[1]; [9]
  B/B0 %: 66%
  RLU: 2912 RLU
[1]; [10]
  B/B0 %: 51%
  RLU: 2244 RLU
[1]; [11]
  B/B0 %: 34%
  RLU: 1517 RLU
[1]; [12]
  B/B0 %: 23%
  RLU: 1015 RLU
[1]; [13]
  B/B0 %: 16%
  RLU: 697 RLU
[1]
  Cross-reactivity: Cross-reactivity 0.4%
  IC50: IC50 = 1,323.50 ng/ml
[2]
  IC50: 2.6 ng/mL (≈ 0.0111 µM)
  % cross reactivity: 100%

## CNCCC[C@@]1(c2ccc(F)cc2)OCc2cc(C#N)ccc21 [N-desmethylescilatopram]
[1]
  No measurable CR at given concentration: 10 µg/mL

## N[C@H]1CC[C@@H](c2ccc(Cl)c(Cl)c2)c2ccccc21 [Norsertraline]
[1]
  No measurable CR at given concentration: 10 µg/mL

## CNCCC=C1c2ccccc2CCc2ccccc21 [Nortriptylene]
[1]
  No measurable CR at given concentration: 10 µg/mL

## O=C(O)C(c1ccccc1)C1CCCCN1 (stereo not shown) [RA, ritalinic acid]
[1]; RA calibrator 3.91 ng/ml
  B/B0 %: 65%
  RLU: 3459 RLU
[1]; RA calibrator 7.81 ng/ml
  B/B0 %: 40%
  RLU: 2552 RLU
[1]; RA calibrator 15.63 ng/ml
  B/B0 %: 31%
  RLU: 1980 RLU
[1]; RA calibrator 31.25 ng/ml
  B/B0 %: 18%
  RLU: 1111 RLU
[1]; RA calibrator 62.50 ng/ml
  B/B0 %: 11%
  RLU: 677 RLU
[1]; RA calibrator 125.00 ng/ml
  B/B0 %: 6%
  RLU: 374 RLU
[1]; RA calibrator 250.00 ng/ml
  B/B0 %: 4%
  RLU: 247 RLU
[1]; RA calibrator 500.00 ng/ml
  B/B0 %: 2%
  RLU: 134 RLU
[1]
  Cross-reactivity: Cross-reactivity 100%
  IC50: IC50 = 5.21 ng/ml,
[4]
  Cross-reactivity: less than 0.9%
[2]
  IC50: 260 ng/mL (≈ 1.19 µM)
  % cross reactivity: 1%
[2]; listed as ritalinic acid
  % cross reactivity: 1.0%
[3]
  IC50: 8.41 ng/mL
  % CR: 100%
[3]; calibrator 1.25 ng/ml
  Ave OD: 1.346
  B/Bo: 82.4
[3]; calibrator 2.5 ng/ml
  Ave OD: 1.169
  B/Bo: 71.5
[3]; calibrator 5 ng/ml
  Ave OD: 0.987
  B/Bo: 60.4
[3]; calibrator 10 ng/ml
  Ave OD: 0.751
  B/Bo: 46.0
[3]; calibrator 20 ng/ml
  Ave OD: 0.584
  B/Bo: 35.7
[3]; calibrator 40 ng/ml
  Ave OD: 0.424
  B/Bo: 26.0
[3]; calibrator 80 ng/ml
  Ave OD: 0.311
  B/Bo: 19.0

## O=C(O)c1ccccc1O [Salicylic acid]
[1]
  No measurable CR at given concentration: 1000 µg/mL
[2]; [5]
  Concentration exhibiting no cross-reactivity: 1000 µg/mL

## COc1cccc(C2(O)CCCCC2CN(C)C)c1 (stereo not shown) [Tramadol]
[1]
  No measurable CR at given concentration: 10 µg/mL

## CNCCC(Oc1ccc(C(F)(F)F)cc1)c1ccccc1 (stereo not shown) [fluoxetine]
[1]
  No measurable CR at given concentration: 100 µg/mL

## Clc1cccc(N2CCNCC2)c1 [mCPP]
[1]
  No measurable CR at given concentration: 10 µg/mL

## Cc1ccccc1-n1c(C)nc2ccccc2c1=O [methaqualone]
[2]; [5]
  Concentration exhibiting no cross-reactivity: 10 µg/mL

## COC(=O)c1ccccc1O [methyl salicylate]
[2]; [5]
  Concentration exhibiting no cross-reactivity: 250 µg/mL

## COc1ccc2cc([C@H](C)C(=O)O)ccc2c1 [naproxen]
[2]
  Concentration exhibiting no cross-reactivity: 250 µg/mL

## O=C1CN=C(c2ccccc2)c2cc(Cl)ccc2N1 [nordiazepam]
[2]; [5]
  Concentration exhibiting no cross-reactivity: 3 µg/mL

## CCOC(=O)C1(c2ccccc2)CCNCC1 [normeperidine]
[2]; [5]
  Concentration exhibiting no cross-reactivity: 1 µg/mL

## CNCCC=C1c2ccccc2CCc2ccccc21 [nortriptyline HCl]
[2]
  Concentration exhibiting no cross-reactivity: 10 µg/mL

## COc1ccc2c3c1O[C@H]1C(=O)CC[C@@]4(O)[C@@H](C2)N(C)CC[C@]314 [oxycodone]
[2]; [5]
  Concentration exhibiting no cross-reactivity: 10 µg/mL

## CCOc1ccc(N)cc1 [p-phenetidine]
[2]; [5]
  Concentration exhibiting no cross-reactivity: 106.35 µg/mL

## Oc1ccc(C(F)(F)F)cc1 [p-trifluoromethylphenol]
[2]; [5]
  Concentration exhibiting no cross-reactivity: 2.5 µg/mL

## CCOc1ccc(NC(C)=O)cc1 [phenacetin]
[2]; [5]
  Concentration exhibiting no cross-reactivity: 250 µg/mL

## NCCc1ccccc1.O=S(=O)(O)O [phenethylamine sulfate]
[2]; [5]
  Concentration exhibiting no cross-reactivity: 250 µg/mL

## O=C(Oc1ccccc1C(=O)O)c1ccccc1O [salsalate]
[2]; [5]
  Concentration exhibiting no cross-reactivity: 250 µg/mL

## CN[C@H]1CC[C@@H](c2ccc(Cl)c(Cl)c2)c2ccccc21 [sertaline]
[2]; [5]
  Concentration exhibiting no cross-reactivity: 7.5 µg/mL

## CN(C(=O)O[C@@H]1O[C@H](C(=O)O)[C@@H](O)[C@H](O)[C@H]1O)[C@H]1CC[C@@H](c2ccc(Cl)c(Cl)c2)c2ccccc21 [sertraline carbamoyl glocuronide]
[2]
  Concentration exhibiting no cross-reactivity: 3 µg/mL

## CN1C(=O)C(O)N=C(c2ccccc2)c2cc(Cl)ccc21 (stereo not shown) [temazepam]
[2]; [5]
  Concentration exhibiting no cross-reactivity: 3 µg/mL

## COc1cccc(C2(O)CCCCC2CN(C)C)c1 (stereo not shown) [tramadol HCl]
[2]; [5]
  Concentration exhibiting no cross-reactivity: 10 µg/mL

## O=c1n(CCCN2CCN(c3cccc(Cl)c3)CC2)nc2ccccn12 [trazodone HCl]
[2]; [5]
  Concentration exhibiting no cross-reactivity: 10 µg/mL

## O=c1n(CCC[N+]2([O-])CCN(c3cccc(Cl)c3)CC2)nc2ccccn12 [trazodone N-oxide]
[2]
  Concentration exhibiting no cross-reactivity: 0.4 µg/mL

## O=C(O)C(Cl)(Cl)Cl [trichloroacetic acid]
[2]; [5]
  Concentration exhibiting no cross-reactivity: 100 µg/mL

## O=C(O)[C@H]1O[C@@H](OCC(Cl)(Cl)Cl)[C@H](O)[C@@H](O)[C@@H]1O [urochloralic acid]
[2]; [5]
  Concentration exhibiting no cross-reactivity: 100 µg/mL

## COc1ccc(C(CN(C)C)C2(O)CCCCC2)cc1 (stereo not shown) [venlafaxine HCl]
[2]; [5]
  Concentration exhibiting no cross-reactivity: 0.18 µg/mL

## CCN(C(C)=O)c1cccc(-c2ccnc3c(C#N)cnn23)c1 [zaleplon]
[2]; [5]
  Concentration exhibiting no cross-reactivity: 10 µg/mL

## Cc1ccc(-c2nc3ccc(C)cn3c2CC(=O)N(C)C)cc1 [zolpidem tartrate]
[2]; [5]
  Concentration exhibiting no cross-reactivity: 10 µg/mL

## CN1CCN(C(=O)OC2c3nccnc3C(=O)N2c2ccc(Cl)cn2)CC1 (stereo not shown) [zopiclone]
[2]; [5]
  Concentration exhibiting no cross-reactivity: 10 µg/mL

## Dextromorphan
[1]
  No measurable CR at given concentration: 10 µg/mL

## dextrorphan tartrate salt
[2]; [5]
  Concentration exhibiting no cross-reactivity: 0.25 µg/mL

## salicylic acid B-D glucuronide
[2]; [5]
  Concentration exhibiting no cross-reactivity: 125 µg/mL
